Values quoted from earlier work, collected in patent publication US9057089B2, “Methods for natural product optimization” (The University of Wyoming, priority 2008, dated 2015).

Legend:
[1] = system: growing E. coli cells
[2] = system: fungi, protozoa, or eukaryotic cells
[3] = human clinical trials
[4] = system: peptidoglycan synthesis; details: metabolic labeling
[5] = system: transpeptidases (penicillin binding proteins, PBPs)
[6] = in vivo
[7] = system: RpoB-V1275F mutant; details: rpoB Val→Phe substitution (position 1275)

CCCC1OC(=O)C(C)CC(C)CCCCC(=O)CCCC(CC)/C=C/C=C(\COC)CCC(O)C(O)CC(O)CNC1=O (centres unmarked) [Antibiotic TA, myxovirescin]
effect of sera on activity ([1]; sera): not inhibited by sera | growing E. coli cells killed ([1]; within 30 minutes at 2 μg/ml): 99% | activity on fungi, protozoa, or eukaryotic cells [2]: not active | therapeutic effect in periodontal diseases [3]: effective therapeutic | three indices (plaque, gingival, and bleeding) ([3]; only two treatments): significantly improved | peptidoglycan synthesis [4]: blocks peptidoglycan synthesis | inhibition of final cross-linking step catalyzed by transpeptidases [5]: does not inhibit | safety [6]: safe

C/C=C/C/C=C(\C)C(O)CC/C(C)=C/C=C(\C)C(=O)c1c(O)cc([C@H](C)CC/C=C/NC(=O)OC)oc1=O (some centres unmarked) [Cor, corallopyronin]
increase of antibiotic MIC values relative to wild type cells [7]: > 8 fold

C/C(=C\Cc1ccccc1)CCC(=O)C[C@H]1C[C@H](O)C/C(C)=C/C/C=C/C/C(CC(=O)O)=C\C(=O)O1 [Rip, ripostatin]
increase of antibiotic MIC values relative to wild type cells [7]: > 16 fold

myxopyronin
increase of antibiotic MIC values relative to wild type cells [7]: > 32 fold
